Patent US6780839B2, “Use of secretin-receptor ligands in treatment of cystic fibrosis (CF) and chronic obstructive pulmonary disease (COPD)” (Pharmagene Laboratories Ltd., priority 2000, dated 2004)

Experiments:
[1] = test system: human tertiary bronchus from non-CF donors; assay: Short circuit current across the bronchial wall, modified Ussing chamber; assay type: cell-based
From the text: In brief, non-branching regions of the human tertiary bronchus from non-CF donors were dissected, cut longitudinally and mounted in between the two compartments of a modified Ussing chamber to measure the short circuit current across the bronchial wall. Both luminal (airway) and basolateral membranes were bathed in oxygenated Krebs extracellular solution and the tissue voltage clamped to zero to allow changes in short circuit current in response to secretin to be measured. Amiloride at a concentration of 10 μM was initially added to the luminal membrane (FIG. 5, point a)(as described by those in the art) to partially block the predominant sodium ion current and unmask underlying ionic currents. On attainment of a stable base line, 3 μM human secretin (supplied by Sigma, catalogue number S714) was added to the luminal membrane (FIG. 5, point b).

[2] = test system: primary human tertiary bronchial epithelial cells; assay: Cl- efflux by MQAE fluorescence; assay type: cell-based; settings: FIG. 8
Procedure: Molecular Probes). In brief, primary human, tertiary bronchial epithelial cells were isolated as previously described and cultured in a 96 well plate. On reaching confluency, cells were loaded overnight with 4 mM MQAE. Cells were washed in a chloride containing HEPES buffer, before passive Cl^− efflux was initiated by the addition of a Cl^− free buffer. […] 100 nM Secretin mediated Cl^− efflux was inhibited by the non-selective Cl^− blocker NPPB (open circles).

[3] = test system: human CF tertiary bronchus; assay: Short circuit current in CF bronchus, modified Ussing chamber; assay type: cell-based
Procedure: The experiment described above was repeated using human CF tertiary bronchus, using 1 μM secretin.

[4] = test system: primary human tertiary bronchial epithelial cells derived from non-CF donors; assay: Short circuit current in confluent tertiary bronchial epithelial cell monolayers, modified Ussing chamber; assay type: cell-based
From the text: Functional effects of the secretin receptor were probed in epithelial cells derived from the human tertiary bronchus. In brief, tertiary bronchial epithelial were isolated by overnight protease digestion and then cultured until confluency on Snapwell (Costar) permeable supports. The supports were mounted in a modified Ussing chamber, and both luminal and basolateral membranes were bathed in oxygenated Krebs extracellular solution. The cells were voltage clamped to zero to allow changes in short circuit current Isc in response to secretin to be measured. As previously described, 10 μM amiloride was initially added to the luminal membrane (FIG. 6, point a)followed by the addition of 100 μM secretin to the luminal membrane (FIG. 6, point b). A time matched, amiloride-treated control is denoted by the thin trace.

rats = settings: injected intracerebroventricularly; cited from earlier work
rat cholangiocytes = settings: by translocation of AQP-1 water channels; cited from earlier work
[5] = 10 μM ATP or UTP on apical membrane, FIG. 5 point c

For `Nc1ncnc2c1ncn2[C@@H]1O[C@H](COP(=O)(O)OP(=O)(O)OP(=O)(O)O)[C@@H](O)[C@H]1O` [ATP], the “ionic movement (short circuit current)” value [1, 5] was “stimulate a similar ionic movement of similar magnitude”.

For `O=C(O)c1cc([N+](=O)[O-])ccc1NCCCc1ccccc1` [NPPB, 5-nitro-2-(3-phenylpropyl-amino)benzoic acid], the “effect on secretin mediated changes in MQAE fluorescence (Cl- efflux)” value ([2]; 100 μM NPPB with 100 nM secretin) was “abolished”.

For `O=c1ccn([C@@H]2O[C@H](COP(=O)(O)OP(=O)(O)OP(=O)(O)O)[C@@H](O)[C@H]2O)c(=O)[nH]1` [UTP], the “ionic movement (short circuit current)” value [1, 5] was “stimulate a similar ionic movement of similar magnitude”.

For `N=C(N)NC(=O)c1nc(Cl)c(N)nc1N` [amiloride], the “effect on underlying sodium current” value ([3]; amiloride, FIG. 7 point a) was “blocks the underlying sodium current”.

For `COc1ccc(Cl)cc1C(=O)NCCc1ccc(S(=O)(=O)NC(=O)NC2CCCCC2)cc1` [glibenclamide], the “suppression of secretin mediated ionic movement” value ([4]; 500 μM glibenclamide (CFTR inhibitor)) was “failed to suppress secretin mediated ionic movement”.

In the case of secretin, the defecation (rats) is given as “significantly increased defecation”, the novel-object approaches (rats) is given as “decreased novel-object approaches” and the stereotypic behaviour (rats) is given as “no significant effects on stereotypic behaviour”. The “ionic movement (short circuit current)” value ([1]; 3 μM human secretin on luminal membrane after 10 μM amiloride, FIG. 5) was “stimulate ionic movement in a manner consistent with the movement of a negatively charged ion”, the “ionic movement (short circuit current Isc)” value ([4]; 100 μM secretin on luminal membrane after 10 μM amiloride, FIG. 6) was “stimulated ionic movement in a manner consistent with the movement of a negatively charged ion” and the “ionic movement (short circuit current)” value ([3]; 1 μM secretin after amiloride, FIG. 7 point b) was “stimulates ionic movement of a negatively charged ion”. For the same compound, the “concentration dependent increase in osmotic H2O permeability” value (rat cholangiocytes) was 60% and the “Cl- efflux (changes in MQAE fluorescence)” value ([2]; nanomolar concentrations of secretin (12.5 nM, 100 nM), Cl- free buffer) was “stimulated Cl^− efflux”.
